We go through 3 molecules from patent US10633372B2, “Process for the preparation of amorphous (1S)-1,5-anhydro-1-[3-[[5-(4 fluorophenyl)-2-thienyl]-4-methylphenyl]-D-glucitol and its polymorphs thereof” (MSN LABORATORIES PRIVATE LIMITED, priority 2015, dated 2020).

Data set [1] can be described thus: Particle size distribution. It is filed as physicochemical.
The conditions of data set [2]: cited from earlier work.
For data set [3] the following is noted: as mentioned in WO2008/069327 A1; cited from earlier work.

For `Cc1ccc([C@@H]2O[C@H](CO)[C@@H](O)[C@H](O)[C@H]2O)cc1Cc1ccc(-c2ccc(F)cc2)s1` [Example-2, (1S)-1,5-anhydro-1-[3-[[5-(4-fluorophenyl)-2-thienyl]methyl]-4-methylphenyl]-D-glucitol], in data set [1], the “Particle size distribution D(0.1)” value worked out at 3.29 μm, the “Particle size distribution D(0.5)” value was determined as 7.69 μm and the “Particle size distribution D(0.9)” value amounted to 14.5 μm.
For `Cc1ccc([C@@H]2O[C@H](CO)[C@@H](O)[C@H](O)[C@H]2O)cc1Cc1ccc(-c2ccc(F)cc2)s1` [Example-4, (1S)-1,5-anhydro-1-[3-[[5-(4-fluorophenyl)-2-thienyl]methyl]-4-methylphenyl]-D-glucitol], in that order: 28.7 μm, 61.4 μm and 116.4 μm.
Turning to `Cc1ccc([C@@H]2O[C@H](CO)[C@@H](O)[C@H](O)[C@H]2O)cc1Cc1ccc(-c2ccc(F)cc2)s1` [amorphous canagliflozin, (1S)-1,5-anhydro-1-[3-[[5-(4-fluorophenyl)-2-thienyl]methyl]-4-methylphenyl]-D-glucitol], in data set [2] (DVS, two cycles, appearance changed as humidity increased from 70% to 90% RH), the “physical change between the sorption/desorption cycle” value was “conversion or partial conversion from the amorphous state to a crystalline state”. In addition, in data set [2] (amorphous canagliflozin prepared per US'487 A1 (toluene solution into n-heptane)), the “hygroscopic nature confirmed by Dynamic vapor sorption (DVS) analysis” value is listed as “hygroscopic”. The “stability and handling of amorphous form” value in data set [3] was “suffers from stability and handling issues such as poor filterability”.
